Assay results: patent US20120294803A1, “CXCR4 ANTAGONISTS FOR IMAGING OF CANCER AND INFLAMMATORY DISORDERS” (EMORY UNIVERSITY, priority 2010, published 2012)

Assays:
CXCR4-positive paw edema = assay: MicroPET/CT imaging in edema animal model; assay type: in vivo, mice; settings: 30 mins post-injection
Method: In vivo biodistribution studies were performed to determine whether [^18F]M508F can be used to image CXCR4-positive inflammation in vivo.

CXCR4 = CXCR4 (Homo sapiens, UniProt P61073); assay: Competition binding assay, metastatic 686LN cells with [18F]M508F and increasing nonradioactive [19F]M508F
CXCR4, sequence (P61073 whole entry, species assumed): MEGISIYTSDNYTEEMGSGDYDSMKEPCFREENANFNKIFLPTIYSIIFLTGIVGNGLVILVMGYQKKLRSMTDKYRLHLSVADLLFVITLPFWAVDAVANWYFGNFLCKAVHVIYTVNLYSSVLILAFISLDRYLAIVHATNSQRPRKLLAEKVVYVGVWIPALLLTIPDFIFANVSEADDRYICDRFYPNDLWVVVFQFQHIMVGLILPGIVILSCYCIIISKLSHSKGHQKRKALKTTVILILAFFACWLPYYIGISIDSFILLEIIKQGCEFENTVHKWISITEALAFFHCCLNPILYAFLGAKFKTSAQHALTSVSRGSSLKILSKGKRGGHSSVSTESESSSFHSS
Method: To determine whether [^18F]M508F specifically and quantitatively would bind to CXCR4 on the cell surface, we tested this using the metastatic 686LN subclones that are CXCR4-positive in vitro. […] Similarly, a competition assay was used to determine the binding affinity of [^18F]M508F to CXCR4. Metastatic 686LN cells, incubated with a constant amount of [^18F]-M508F and increasing concentrations of nonradioactive [^19F]-M508F for 1 h at ambient temperature, were used in the competition binding assay.

[1] = tested on: CXCR4-positive lung metastases; assay: MicroPET/CT imaging in lung metastasis of SCCHN animal model; assay type: in vivo, mouse; settings: 60 mins post-injection
Method: MicroPET/CT scan images of the lungs were performed to determine whether [^18F]M508F can be used to image CXCR4-positive lung metastases in vivo. These images were obtained 60 minutes post-injection of [^18F]M508F.

[2] = Tissue biodistribution by tissue harvesting and gamma counter in normal mice; assay type: in vivo, C57Black mice; settings: 15, 30, 60, 120 min post-injection
Method: To determine the tissue biodistribution of [^18F]M508F using a gamma counter in regular C57Black mice, we harvested animal organs, including blood, at 15 min, 30 min, 60 min, and 120 min post-injection and measured the uptake of radioactivity in various organs [radioactivity (% injected dose)/g] with n=5 per group.
Results are shown in FIG. 2 as average vales +/−SE.

[3] = tested on: CXCR4-positive orthothopic SCCHN tumors; assay: MicroPET imaging in orthotopic SCCHN animal model; assay type: in vivo, mouse; settings: 30 mins post-injection
Method: In vivo biodistribution and tumor uptake studies were performed to determine whether [^18F]M508F can be used to image CXCR4-positive tumors in vivo.

[4] = tested on: CXCR4-positive immune cells; assay: MicroPET/CT imaging of lung inflammation induced by strong-dose radiation; assay type: in vivo, mouse; settings: 20 Gy irradiation, 60 mins post-injection
Method: MicroPET/CT scan images of the lungs were performed to determine whether [^18F]M508F can be used to image lung inflammation induced by the strong-dose radiation therapy in vivo. These images were obtained 60 minutes post-injection of [^18F]M508F.
These images were obtained 60 minutes post-injection of [^18F]M508F.

Fc1cnc([18F])nc1NCc1ccc(CNc2ccnc(NCCN3CCOCC3)n2)cc1 [[^18F]M508F, N4-(4((2-^18-fluoro,5-fluoropyrimidin-4-ylamino)methyl)benzyl)-N2-(2-morpholinoethyl)pyrimidine-2,4-diamine]
uptake of tracer in paw edema (PET) (CXCR4-positive paw edema): significant uptake | binding affinity better than 64Cu-AMD3100 (CXCR4; 1.85 μM compared with […]): over 50 times | Kd (CXCR4; metastatic 686LN cells, 1 h at ambient temperature, competition with nonradioactive [19F]-M508F, read-out: binding affinity for CXCR4): 1850 nM | uptake of tracer by metastatic SCCHN tumors in lung (PET/CT) [1]: significant uptake | accumulation in the liver [2]: anomalous specific accumulation in the liver | blood and muscle clearance [2]: fast blood and muscle clearance | clearance pathway [2]: renal clearance pathway | tumor uptake of tracer (PET) [3]: significant uptake | crossing of the blood-brain-barrier ([3]; PET sagittal image): does not cross the blood-brain-barrier | uptake of tracer by CXCR4-positive immune cells in lung inflammation (PET/CT) [4]: significant uptake
